# Earlier results in US20040197429A1, “Selective COX-2 inhibition from plant extracts” (Pharmacia Corporation, priority 2000, published 2004).
# System: COX-1 and COX-2
# Settings: background
structure (smiles),measurement,value
CC(=O)Oc1ccccc1C(=O)O [aspirin],effectiveness inactivating COX-1 as opposed to COX-2,10 to 100 times
